Article PMC7156458, “Synthetic biology based construction of biological activity-related library of fungal decalin-containing diterpenoid pyrones” (Nature Communications, 2020)

Biological target: Aβ42 (Homo sapiens, UniProt P05067)
Assay: Th-T (thioflavin-T) assay of Aβ42 aggregation
Assay type: biochemical
Conditions: for Th-T assay plate reading, mean of three wells (Supplementary Fig. 47): source data, Ab alone and No Ab as controls

Aβ42, sequence (P05067 672-713): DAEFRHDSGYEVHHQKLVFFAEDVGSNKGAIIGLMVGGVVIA

C=C1CCC2C(C)(CC(=O)C=C(C)C)C(O)CCC2(C)C1Cc1c(O)c(C)c(C)oc1=O (centres unmarked) [Compound 7]
Th-T fluorescence, mean of three wells (Aβ42 aggregation time course, reading M117): 3.444 | Th-T fluorescence, mean of three wells (Aβ42 aggregation time course, reading M118): 3.462 | Th-T fluorescence, mean of three wells (Aβ42 aggregation time course, reading M119): 3.421 | Th-T fluorescence, mean of three wells (Aβ42 aggregation time course, reading M120): 3.485 | Th-T fluorescence, mean of three wells (Aβ42 aggregation time course, reading M121): 3.437 | Th-T fluorescence, mean of three wells (Aβ42 aggregation time course, reading M122): 3.4838 | Th-T fluorescence, mean of three wells (Aβ42 aggregation time course, reading M123): 3.463 | Th-T fluorescence, mean of three wells (Aβ42 aggregation time course, reading M124): 3.451 | Th-T fluorescence, mean of three wells (Aβ42 aggregation time course, reading M125): 3.454 | Th-T fluorescence, mean of three wells (Aβ42 aggregation time course, reading M126): 3.465 | Th-T fluorescence, mean of three wells (Aβ42 aggregation time course, reading M127): 3.446 | Th-T fluorescence, mean of three wells (Aβ42 aggregation time course, reading M128): 3.459 | Th-T fluorescence, mean of three wells (Aβ42 aggregation time course, reading M129): 3.461 | Th-T fluorescence, mean of three wells (Aβ42 aggregation time course, reading M130): 3.435 | Th-T fluorescence, mean of three wells (Aβ42 aggregation time course, reading M131): 3.434 | Th-T fluorescence, mean of three wells (Aβ42 aggregation time course, reading M132): 3.446 | Th-T fluorescence, mean of three wells (Aβ42 aggregation time course, reading M133): 3.459 | Th-T fluorescence, mean of three wells (Aβ42 aggregation time course, reading M134): 3.427 | Th-T fluorescence, mean of three wells (Aβ42 aggregation time course, reading M135): 3.416 | Th-T fluorescence, mean of three wells (Aβ42 aggregation time course, reading M136): 3.414 | Th-T fluorescence, mean of three wells (Supplementary Fig. 47, reading M137): 3.399 | Th-T fluorescence, mean of three wells (Supplementary Fig. 47, reading M138): 3.412 | Th-T fluorescence, mean of three wells (Supplementary Fig. 47, reading M139): 3.411 | Th-T fluorescence, mean of three wells (Supplementary Fig. 47, reading M140): 3.433 | Th-T fluorescence, mean of three wells (Supplementary Fig. 47, reading M141): 3.413 | Th-T fluorescence, mean of three wells (Supplementary Fig. 47, reading M142): 3.437 | Th-T fluorescence, mean of three wells (Supplementary Fig. 47, reading M143): 3.394 | Th-T fluorescence, mean of three wells (Supplementary Fig. 47, reading M144): 3.432 | Th-T fluorescence, mean of three wells (Supplementary Fig. 47, reading M145): 3.431 | Th-T fluorescence, mean of three wells (Supplementary Fig. 47 source data, measurement M37 of time course): 3.548 | Th-T fluorescence, mean of three wells (Supplementary Fig. 47 source data, measurement M38 of time course): 3.519 | Th-T fluorescence, mean of three wells (Supplementary Fig. 47 source data, measurement M39 of time course): 3.507 | Th-T fluorescence, mean of three wells (Supplementary Fig. 47 source data, measurement M40 of time course): 3.528 | Th-T fluorescence, mean of three wells (Supplementary Fig. 47 source data, measurement M41 of time course): 3.5472 | Th-T fluorescence, mean of three wells (Supplementary Fig. 47 source data, measurement M42 of time course): 3.534 | Th-T fluorescence, mean of three wells (Supplementary Fig. 47 source data, measurement M43 of time course): 3.54 | Th-T fluorescence, mean of three wells (Supplementary Fig. 47 source data, measurement M44 of time course): 3.555 | Th-T fluorescence, mean of three wells (Supplementary Fig. 47 source data, measurement M45 of time course): 3.57 | Th-T fluorescence, mean of three wells (Supplementary Fig. 47 source data, measurement M46 of time course): 3.557 | Th-T fluorescence, mean of three wells (Supplementary Fig. 47 source data, measurement M47 of time course): 3.602 | Th-T fluorescence, mean of three wells (Supplementary Fig. 47 source data, measurement M48 of time course): 3.575 | Th-T fluorescence, mean of three wells (Supplementary Fig. 47 source data, measurement M49 of time course): 3.594 | Th-T fluorescence, mean of three wells (Supplementary Fig. 47 source data, measurement M50 of time course): 3.623 | Th-T fluorescence, mean of three wells (Supplementary Fig. 47 source data, measurement M51 of time course): 3.626 | Th-T fluorescence, mean of three wells (Supplementary Fig. 47 source data, measurement M52 of time course): 3.602 | Th-T fluorescence, mean of three wells (Supplementary Fig. 47 source data, measurement M53 of time course): 3.622 | Th-T fluorescence, mean of three wells (Supplementary Fig. 47 source data, measurement M54 of time course): 3.589 | Th-T fluorescence, mean of three wells (Supplementary Fig. 47 source data, measurement M55 of time course): 3.592 | Th-T fluorescence, mean of three wells (Supplementary Fig. 47 source data, measurement M56 of time course): 3.6022 | Th-T assay plate reading, mean of three wells (Supplementary Fig. 47) (measurement M1): 0.291 | Th-T assay plate reading, mean of three wells (Supplementary Fig. 47) (measurement M2): 0.3102 | Th-T assay plate reading, mean of three wells (Supplementary Fig. 47) (measurement M3): 0.3462 | Th-T assay plate reading, mean of three wells (Supplementary Fig. 47) (measurement M4): 0.3847 | Th-T assay plate reading, mean of three wells (Supplementary Fig. 47) (measurement M5): 0.4026 | Th-T assay plate reading, mean of three wells (Supplementary Fig. 47) (measurement M6): 0.4778 | Th-T assay plate reading, mean of three wells (Supplementary Fig. 47) (measurement M7): 0.5127 | Th-T assay plate reading, mean of three wells (Supplementary Fig. 47) (measurement M8): 0.5767 | Th-T assay plate reading, mean of three wells (Supplementary Fig. 47) (measurement M9): 0.6534 | Th-T assay plate reading, mean of three wells (Supplementary Fig. 47) (measurement M10): 0.7067 | Th-T assay plate reading, mean of three wells (Supplementary Fig. 47) (measurement M11): 0.7325 | Th-T assay plate reading, mean of three wells (Supplementary Fig. 47) (measurement M12): 0.7635 | Th-T assay plate reading, mean of three wells (Supplementary Fig. 47) (measurement M13): 0.7892 | Th-T assay plate reading, mean of three wells (Supplementary Fig. 47) (measurement M14): 0.8105 | Th-T assay plate reading, mean of three wells (Supplementary Fig. 47) (measurement M15): 0.8372 | Th-T assay plate reading, mean of three wells (Supplementary Fig. 47) (measurement M16): 0.8682 | Th-T fluorescence, mean of three wells (reading M17, Supplementary Fig. 47 source data): 0.9169 | Th-T fluorescence, mean of three wells (reading M18, Supplementary Fig. 47 source data): 0.9995 | Th-T fluorescence, mean of three wells (reading M19, Supplementary Fig. 47 source data): 1.135 | Th-T fluorescence, mean of three wells (reading M20, Supplementary Fig. 47 source data): 1.37 | Th-T fluorescence, mean of three wells (reading M21, Supplementary Fig. 47 source data): 1.709 | Th-T fluorescence, mean of three wells (reading M22, Supplementary Fig. 47 source data): 2.121 | Th-T fluorescence, mean of three wells (reading M23, Supplementary Fig. 47 source data): 2.518 | Th-T fluorescence, mean of three wells (reading M24, Supplementary Fig. 47 source data): 2.859 | Th-T fluorescence, mean of three wells (reading M25, Supplementary Fig. 47 source data): 3.1034 | Th-T fluorescence, mean of three wells (reading M26, Supplementary Fig. 47 source data): 3.2675 | Th-T fluorescence, mean of three wells (reading M27, Supplementary Fig. 47 source data): 3.339 | Th-T fluorescence, mean of three wells (reading M28, Supplementary Fig. 47 source data): 3.364 | Th-T fluorescence, mean of three wells (reading M29, Supplementary Fig. 47 source data): 3.378 | Th-T fluorescence, mean of three wells (reading M30, Supplementary Fig. 47 source data): 3.446 | Th-T fluorescence, mean of three wells (reading M31, Supplementary Fig. 47 source data): 3.431 | Th-T fluorescence, mean of three wells (reading M32, Supplementary Fig. 47 source data): 3.47 | Th-T fluorescence, mean of three wells (reading M33, Supplementary Fig. 47 source data): 3.448 | Th-T fluorescence, mean of three wells (reading M34, Supplementary Fig. 47 source data): 3.489 | Th-T fluorescence, mean of three wells (reading M35, Supplementary Fig. 47 source data): 3.5187 | Th-T fluorescence, mean of three wells (reading M36, Supplementary Fig. 47 source data): 3.503 | Th-T fluorescence, mean of three wells (time course, reading M57): 3.603 | Th-T fluorescence, mean of three wells (time course, reading M58): 3.607 | Th-T fluorescence, mean of three wells (time course, reading M59): 3.578 | Th-T fluorescence, mean of three wells (time course, reading M60): 3.583 | Th-T fluorescence, mean of three wells (time course, reading M61): 3.605 | Th-T fluorescence, mean of three wells (time course, reading M62): 3.61 | Th-T fluorescence, mean of three wells (time course, reading M63): 3.6015 | Th-T fluorescence, mean of three wells (time course, reading M64): 3.57 | Th-T fluorescence, mean of three wells (time course, reading M65): 3.572 | Th-T fluorescence, mean of three wells (time course, reading M66): 3.5992 | Th-T fluorescence, mean of three wells (time course, reading M67): 3.63 | Th-T fluorescence, mean of three wells (time-course reading M97, Supplementary Fig. 47 source data): 3.5286 | Th-T fluorescence, mean of three wells (time-course reading M98, Supplementary Fig. 47 source data): 3.531 | Th-T fluorescence, mean of three wells (time-course reading M99, Supplementary Fig. 47 source data): 3.498 | Th-T fluorescence, mean of three wells (time-course reading M100, Supplementary Fig. 47 source data): 3.513 | Th-T fluorescence, mean of three wells (time-course reading M101, Supplementary Fig. 47 source data): 3.502 | Th-T fluorescence, mean of three wells (time-course reading M102, Supplementary Fig. 47 source data): 3.488 | Th-T fluorescence, mean of three wells (time-course reading M103, Supplementary Fig. 47 source data): 3.486 | Th-T fluorescence, mean of three wells (time-course reading M104, Supplementary Fig. 47 source data): 3.491 | Th-T fluorescence, mean of three wells (time-course reading M105, Supplementary Fig. 47 source data): 3.477 | Th-T fluorescence, mean of three wells (time-course reading M106, Supplementary Fig. 47 source data): 3.476 | Th-T fluorescence, mean of three wells (time-course reading M107, Supplementary Fig. 47 source data): 3.493 | Th-T fluorescence, mean of three wells (time-course reading M108, Supplementary Fig. 47 source data): 3.51 | Th-T fluorescence, mean of three wells (time-course reading M109, Supplementary Fig. 47 source data): 3.4898 | Th-T fluorescence, mean of three wells (time-course reading M110, Supplementary Fig. 47 source data): 3.516 | Th-T fluorescence, mean of three wells (time-course reading M111, Supplementary Fig. 47 source data): 3.513 | Th-T fluorescence, mean of three wells (time-course reading M112, Supplementary Fig. 47 source data): 3.526 | Th-T fluorescence, mean of three wells (time-course reading M113, Supplementary Fig. 47 source data): 3.459 | Th-T fluorescence, mean of three wells (time-course reading M114, Supplementary Fig. 47 source data): 3.543 | Th-T fluorescence, mean of three wells (time-course reading M115, Supplementary Fig. 47 source data): 3.464 | Th-T fluorescence, mean of three wells (time-course reading M116, Supplementary Fig. 47 source data): 3.458
